Experimental data from patent US10328161B2, “Luciferin derivatives from bicyclic reactants and aminothiol derivatives and methods of use thereof” (The Regents of the University of California, priority 2012, dated 2019).

Key:
PC3M-luc cells [1] = assay: Lifetime of HCBT and D-cysteine in PC3M-luc cells; assay type: cell-based; settings: 100 μM, 30 min incubation, wash, complementary reagent after 0-60 min
Procedure: (§1) A Xenogen IVIS Spectrum instrument (Caliper Life Sciences, Hopkinton, Mass.) was used for bioluminescent imaging in all cellular experiments. PC3M-luc cells (kindly provided by Chris Contag, Stanford University) were cultured in Dulbecco's Modified Eagle Medium (DMEM) containing 10% Fetal Bovine Serum (FBS). Prior to assaying, cells were passed and plated (1.3-1.5×10^4 cells/well) in black 96-well plates with clear bottoms (Becton Dickinson and Company, Franklin Lakes, N.J.). Once the cells were ca. 95% confluent, reagents were added for bioluminescent assays.
The medium was removed from PC3M-luc cells prepared as described above, and HCBT (100 μM, 1% DMSO) or D-cysteine (100 μM, 1% PBS) in DMEM (-FBS) was added. After a 30 min incubation, the HCBT or D-cysteine was removed, the cells were washed with DMEM (-FBS), and fresh DMEM was added. After 0, 15, 30, 45, or 60 min, the second component of luciferin, D-cysteine (100 μM final concentration, 1% PBS) or HCBT (100 μM final concentration, 1% DMSO) in HBSS (25 mM glucose) was added, and the plate was immediately imaged for 2 h to determine the peak bioluminescent signal produced.

PC3M-luc cells [2] = assay: Comparison of in situ luciferin formation and luciferin in PC3M-luc cells (intact and lysed); assay type: cell-based
Procedure: as §1
PC3M-luc cells prepared as described above were washed with HBSS (25 mM glucose) prior to addition of HCBT and D-cysteine (0-500 μM, 1% DMSO) or luciferin (0-500 μM, 1% DMSO) in HBSS (25 mM glucose). For experiments with lysed cells, 100 μL Glo lysis buffer (Promega, Madison, Wis.) was incubated with the PC3M-luc cells for 5 min prior to addition of HCBT and D-cysteine or luciferin. The plates were immediately imaged for 2 h to determine the peak bioluminescent signal produced.

[3] = Selectivity assay for PCL-2: panel of various ROS; assay type: biochemical
Procedure: (§2) Millipore water was used to prepare all aqueous solutions. Luciferase (100 μg/mL) in 50 mM Tris buffer, pH 7.4, with 10 mM MgCl2, 0.1 mM ZnCl2, and 2 mM ATP was added to selectivity assay samples (described below) to determine the relative amount of luciferin formed during incubation. Measurements for bioluminescent assays were performed at 37° C. and were recorded using a Molecular Devices SpectraMax M2 plate reader (Sunnyvale, Calif.). Samples for bioluminescent measurements were placed in white, opaque 96-well plates, which were purchased from Corning Inc. (Corning, N.Y.). ATP was purchased from MP Biomedicals (Solon, Ohio) or Sigma-Aldrich (St. Louis, Mo.), and luciferase was purchased from Promega (Madison, Wis.). Caspase enzymes were purchased from Sigma-Aldrich (St. Louis, Mo.), and caspase inhibitors were purchased from MP Biomedicals (Solon, Ohio).
(§3) Various ROS (100 μM) were administered to PCL-2 or HCBT (5 μM) in Tris buffer (50 mM, pH 7.4) with or without 10 mM MgCl2 and 0.1 mM ZnCl2. […] After an additional 15 min incubation, 100 μL of a Tris buffer (50 mM, pH 7.4) containing luciferase (100 μg/mL), 10 mM MgCl2, 0.1 mM ZnCl2, and 2 mM ATP was added to 100 μL of the PCL-2 or HCBT solutions and the bioluminescent signal was detected.

PC3M-luc cells [4] = assay: Signal produced from endogenous L-cysteine in PC3M-luc cells; assay type: cell-based; settings: HCBT alone 0-50 μM
Procedure: as §1
PC3M-luc cells prepared as described above were washed with HBSS (25 mM glucose) prior to addition of HCBT and D-cysteine (0-50 μM, 1% DMSO) or HCBT alone (0-50 μM, 1% DMSO) in HBSS (25 mM glucose). The plate was immediately imaged for 2 h to determine the peak bioluminescent signal produced.

FVB-luc^+ mice [5] = assay: Signal produced from endogenous L-cysteine in mice; assay type: in vivo; settings: HCBT 0.05 μmol IP without D-cysteine
Text: (§4) A Xenogen IVIS Spectrum instrument (Caliper Life Sciences, Hopkinton, Mass.) was used for bioluminescent imaging in all animal experiments. Mice were anesthetized prior to injection and during imaging via inhalation of isoflurane. Phosphate Buffered Saline (PBS) was purchased from Thermo Fisher Scientific (Waltham, Mass.), and saline (0.9%) was made from sodium chloride and Millipore water. Isoflurane was purchased from Phoenix Pharmaceuticals, Inc. (St. Joseph, Mo.), and pharmaceutical grade DMSO was purchased from Sigma-Aldrich (St. Louis, Mo.). Medical grade oxygen was purchased from Praxair (Danbury, Conn.).
(§5) FVB-luc^+ (FVB-Tg(CAG-luc,-GFP)L2G85Chco/J) mice were bred at UC Berkeley, and were single or group-housed on a 12:12 light-dark cycle at 22° C. with free access to food and water. All studies were approved and performed according to the guidelines of the Animal Care and Use Committee of the University of California, Berkeley.
Unshaven, male FVB-luc+ mice were anesthetized with isoflurane and injected IP with D-cysteine (0.05 μmol, in 20 μL of PBS) or vehicle (20 μL PBS). After 2 min, mice were injected IP with HCBT (0.05 μmol in 50 μL of 1:1 DMSO:PBS). Following injections, mice were imaged with an IVIS Spectrum.

FVB-luc^+ mice [6] = assay: Comparison of in situ luciferin formation and luciferin in mice; assay type: in vivo; settings: 0.05 μmol luciferin IP
Text: A Xenogen IVIS Spectrum instrument (Caliper Life Sciences, Hopkinton, Mass.) was used for bioluminescent imaging in all animal experiments. Mice were anesthetized prior to injection and during imaging via inhalation of isoflurane. Phosphate Buffered Saline (PBS) was purchased from Thermo Fisher Scientific (Waltham, Mass.), and saline (0.9%) was made from sodium chloride and Millipore water. Isoflurane was purchased from Phoenix Pharmaceuticals, Inc. (St. Joseph, Mo.), and pharmaceutical grade DMSO was purchased from Sigma-Aldrich (St. Louis, Mo.). Medical grade oxygen was purchased from Praxair (Danbury, Conn.). FVB-luc^+ (FVB-Tg(CAG-luc,-GFP)L2G85Chco/J) mice were bred at UC Berkeley, and were single or group-housed on a 12:12 light-dark cycle at 22° C. with free access to food and water. All studies were approved and performed according to the guidelines of the Animal Care and Use Committee of the University of California, Berkeley. Unshaven, male FVB-luc^+ mice were anesthetized with isoflurane and injected IP with D-[…].05 or 0.5 μmol, in 20 μL of PBS) or vehicle (20 μL PBS). After 2 min, mice were injected IP with HCBT (0.05 or 0.5 μmol in 50 μL of 1:1 DMSO:PBS) or luciferin (0.05 μmol in 50 μL of 1:1 DMSO:PBS). Following injections, mice were imaged with an IVIS Spectrum.

[7] = Lipopolysaccharide inflammation model, H2O2 detection with PCL-2; assay type: in vivo, mice; settings: LPS 3 mg/kg IP 6 h before PCL-2 and D-cysteine 0.05 μmol each
Text: as §4, §5
Unshaven, female FVB-luc^+ mice, aged 2-5 months, were anesthetized with isoflurane and injected IP with lipopolysaccharides (LPS, 3 mg/kg in 50 μL of saline) or saline (50 μL). For studies with PCL-2 alone, mice were injected IP with either apocynin (10 mg/kg in 20 μL of DMSO) or DMSO (20 μL) 6 h after LPS injection. […]

[8] = Concentration dependence of PCL-2 in aqueous solution; assay type: biochemical
Procedure: as §2
PCL-2 was incubated in Tris buffer (50 mM, pH 7.4) with various concentrations of H2O2 for 60 min prior to the addition of catalase (0.4 mg/mL), dithiothreitol (1 mM) and D-cysteine (20 μM). After an additional 15 min incubation, 100 μL of a Tris buffer (50 mM, pH 7.4) containing luciferase (100 μg/mL), 10 mM MgCl2, 0.1 mM ZnCl2, and 2 mM ATP was added to 100 μL of the PCL-2 solutions and the bioluminescent signal was detected.

[9] = Selectivity assay for PCL-2: response to H2O2; assay type: biochemical; settings: PCL-2 5 μM, H2O2 100 μM, 5-60 min, then D-cysteine and luciferase
Procedure: as §2, §3

[10] = Kinetic analysis of the PCL-2 and H2O2 reaction; assay type: physicochemical; settings: PCL-2 10 μM, H2O2 1, 2.5 or 5 mM, Tris buffer pH 8.5
Procedure: H2O2 (1, 2.5, or 5 mM) was added to PCL-2 (10 μM) in Tris buffer (pH 8.5) and absorbance measurements were recorded every 15-30 seconds over 5-20 minutes to determine the second order rate constant for the reaction. Measurements were taken at pH 8.5 to distinguish the HCBT peak, which shifts from 321 nm to 379 nm when it is deprotonated, from the PCL-2 peak (321 nm).

[11] = Exogenous H2O2 experiments in mice; assay type: in vivo
Text: as §4, §5
Unshaven, male FVB-luc^+ mice were anesthetized with isoflurane and injected IP with a mixture of PCL-2 and D-cysteine (0.05 μmol each, in 50 μL of 1:1 DMSO:PBS), followed immediately by an IP injection of H2O2 (0-4.5 μmol in 100 μL of PBS). Control mice were injected IP with a mixture of HCBT and D-cysteine (0.01 μmol each, in 50 μL of 1:1 DMSO:PBS) immediately prior to H2O2 (4.5 μmol in 100 μL of PBS). Following injections, mice were imaged with an IVIS Spectrum.

PC3M-luc cells [12] = assay: Concentration dependence of PCL-2 with PC3M-luc cells; assay type: cell-based; settings: PCL-2 25 μM, D-cysteine 25 μM
Procedure: as §1
The medium was removed from PC3M-luc cells prepared as described above, and PCL-2 (25 μM, 2.5% final DMSO concentration), D-cysteine (25 μM), and H2O2 (0-100 μM final concentrations) in DMEM (-FBS) were added. The plate was immediately imaged for 2 h to determine the peak bioluminescent signal produced from PCL-2.

With N#Cc1nc2ccc(O)cc2s1 [HCBT, 2-Cyano-6-hydroxybenzothiazole] the “cellular lifetime: signal as time between removal and addition of the complementary reagent increases” value (PC3M-luc cells [1]) was “decrease in luminescence”, the “permeability across the cell membrane compared to luciferin” value (PC3M-luc cells [2]; inferred from intact versus lysed PC3M-luc cells) was “increased permeability” and the “bioluminescence turn-on with the same panel of ROS” value ([3]; HCBT 5 μM, ROS 100 μM incl. H2O2, 60 min) was “no bioluminescence turn-on”. For the same compound, the “bioluminescence from HCBT and endogenous L-cysteine compared to HCBT with D-cysteine” value (PC3M-luc cells [4]) was “negligible production of bioluminescence” and the “bioluminescent signal from HCBT and endogenous L-cysteine compared to D-cysteine present” value (FVB-luc^+ mice [5]) was “negligible”.

With O=C(O)[C@H]1CSC(c2nc3ccc(O)cc3s2)=N1 [luciferin] the “bioluminescent signal, luciferin versus HCBT/D-cysteine” value (PC3M-luc cells [2]; intact PC3M-luc cells, lower concentrations (0-500 μM range)) was “greater signal than HCBT/D-cysteine” and the “brightness of signal relative to 0.05 μmol HCBT/D-cysteine” value (FVB-luc^+ mice [6]) was “ca. 40 fold”.

For N#Cc1nc2ccc(OCc3ccc(B(O)O)cc3)cc2s1 [PCL-2, 4-((2-Cyanobenzo[d]thiazol-6-yloxy)methyl)phenylboronic acid], the “turn-on in response to LPS stimulation” value [7] was “ca. 3.7 fold”, the “range of linear response to H2O2” value ([8]; PCL-2 5 μM, 60 min, aqueous solution) was 1-100 μM H2O2 and the “detection limit for H2O2” value ([8]; in vitro summary statement) was “low micromolar”. For the same compound, the “response to other ROS” value ([3]; 5 μM probe, ROS 100 μM (TBHP, hypochlorite, NO, OH, OtBu, O2-)) was “negligible response”, the “increase in bioluminescence in the presence of H2O2” value [9] was “ca. 50 fold” and the “second-order rate constant k for the PCL-2 and H2O2 reaction” value [10] was 2.7 M⁻¹ s⁻¹. For the same compound, the Turn-on ([11]; H2O2 0.5 μmol, PCL-2 0.05 μmol) was 2.8-fold, the “detection limit for H2O2 in vivo” value ([11]; IP, FVB-luc^+ mice, optimized imaging conditions for each probe) was “ca. 0.5 μmol” and the “range of linear response to H2O2 in cellulo” value (PC3M-luc cells [12]) was 0-100 μM H2O2.
